These results are taken from US11739074B2, “Ras inhibitors” (Revolution Medicines, Inc., priority 2019, dated 2023).

Molecules are shown by their SMILES.

The first experiment deals with AsPC-1 (K-Ras G12D). Briefly: CellTiter-Glo cell viability assay, AsPC-1. In kind it is cell-based. The note with it: Homo sapiens, ASPC1, 120 h, AsPC-1, K-Ras G12D, 5-day treatment; read-out: AsPC-1 Cell Viability IC50. As for the experimental part: Determination of Cell Viability in RAS Mutant Cancer Cell Lines
Protocol: CellTiter-Glo® Cell Viability Assay
Note—The following protocol describes a procedure for monitoring cell viability of K-Ras mutant cancer cell lines in response to a compound of the invention. Other RAS isoforms may be employed, though the number of cells to be seeded will vary based on cell line used.
Test compounds (132.5 nL) were directly dispensed into the assay plates containing cells. […] On day 5, assay plates and their contents were equilibrated to room temperature for approximately 30 minutes. […] Luminescence was measured using the PerkinElmer Enspire. Data were normalized by the following: (Sample signal/Avg. DMSO)*100. The data were fit using a four-parameter logistic fit.
As for `CCn1c(-c2cccnc2[C@H](C)OC)c2c3cc(ccc31)-c1cccc(c1)C[C@H](NC(=O)[C@H](C(C)C)N(C)C(=O)[C@H]1C[C@H](N=C=Nc3c(C)cccc3C)C1)C(=O)N1CCC[C@H](N1)C(=O)OCC(C)(C)C2` [Compound 126], the IC50 was greater than 10 µM.

As to `CCn1c(-c2cccnc2[C@H](C)OC)c2c3cc(ccc31)-c1cc(O)cc(c1)C[C@H](NC(=O)[C@H](C(C)C)N1CCC3(CN(C(=O)[C@H]4CN4)C3)C1=O)C(=O)N1CCC[C@H](N1)C(=O)OCC(C)(C)C2` [Compound 115], the concentration for half-maximal inhibition (IC50) was greater than 10 µM.

`CCn1c(-c2cnccc2COC)c2c3cc(ccc31)-c1cccc(c1)C[C@H](NC(=O)[C@H](C(C)C)N(C)C(=O)CCN=C=NCc1ccccc1C)C(=O)N1CCC[C@H](N1)C(=O)OCC(C)(C)C2` [82 A and B]: the IC50 lay within 1 to 10 µM.

On to `CCn1c(-c2cccnc2[C@H](C)OC)c2c3cc(ccc31)-c1cc(O)cc(c1)C[C@H](NC(=O)[C@H](C(C)C)N(C)C(=O)C1CC3(C1)CN(C(=O)[C@@H]1CN1)C3)C(=O)N1CCC[C@H](N1)C(=O)OCC(C)(C)C2` [Compound 180], for which the half-inhibitory concentration (IC50) is greater than 10 µM.

`CCn1c(-c2cnccc2COC)c2c3cc(ccc31)-c1cccc(c1)C[C@H](NC(=O)[C@H](C(C)C)N(C)C(=O)CCN=C=NCc1ccc(OC)cc1OC)C(=O)N1CCC[C@H](N1)C(=O)OCC(C)(C)C2` [61 A and B]: the IC50 was 1 to 10 µM.

Regarding `CCn1c(-c2cccnc2[C@H](C)OC)c2c3cc(ccc31)-c1cc(O)cc(c1)C[C@H](NC(=O)[C@H](C(C)C)N(C)C(=O)c1nc(NC(=O)[C@H]3CN3)cs1)C(=O)N1CCC[C@H](N1)C(=O)OCC(C)(C)C2` [Compound 212], the IC50 was greater than 10 µM.

As for `CCn1c(-c2cnccc2COC)c2c3cc(ccc31)-c1cccc(c1)C[C@H](NC(=O)[C@H](C(C)C)N(C)C(=O)CCN=C=Nc1ccc(OC)cc1)C(=O)N1CCC[C@H](N1)C(=O)OCC(C)(C)C2` [15 A and B], the IC50 is greater than 10 µM.

On to `CCn1c(-c2cccnc2[C@H](C)OC)c2c3cc(ccc31)-c1cc(O)cc(c1)C[C@H](NC(=O)[C@H](C(C)C)N1CC[C@H](NC(=O)[C@H]3CN3)C1=O)C(=O)N1CCC[C@H](N1)C(=O)OCC(C)(C)C2` [Compound 213], for which the IC50 is greater than 10 µM.

For `CCn1c(-c2cccnc2[C@H](C)OC)c2c3cc(ccc31)-c1cc(O)cc(c1)C[C@H](NC(=O)[C@H](C(C)C)N(C)C(=O)N1CC[C@@H](N(C)C(=O)[C@@H]3CN3)C1)C(=O)N1CCC[C@H](N1)C(=O)OCC(C)(C)C2` [Compound 253], the concentration for half-maximal inhibition (IC50) was greater than 10 µM.

For `CCn1c(-c2cccnc2[C@H](C)OC)c2c3cc(ccc31)-c1cc(O)cc(c1)C[C@H](NC(=O)[C@H](C(C)C)N(C)C(=O)N1CC[C@@H](N(C)C(=O)[C@H]3CN3)C1)C(=O)N1CCC[C@H](N1)C(=O)OCC(C)(C)C2` [Compound 252], the IC50 was greater than 10 µM.

Turning to `CCn1c(-c2cccnc2[C@H](C)OC)c2c3cc(ccc31)-c1cc(O)cc(c1)C[C@H](NC(=O)[C@H](C(C)C)N(C)C(=O)c1ccc([C@H]3CN3)cc1)C(=O)N1CCC[C@H](N1)C(=O)OCC(C)(C)C2` [Compound 145], the half-inhibitory concentration (IC50) was greater than 10 µM.

Consider `CCn1c(-c2cccnc2[C@H](C)OC)c2c3cc(ccc31)-c1cc(O)cc(c1)C[C@H](NC(=O)[C@H](C(C)C)N(C)C(=O)N1CCN(C(=O)[C@@H]3CN3)C(=O)C1)C(=O)N1CCC[C@H](N1)C(=O)OCC(C)(C)C2` [Compound 194], for which the half-maximal inhibitory concentration (IC50) was greater than 10 µM.

In the case of `CCn1c(-c2cccnc2[C@H](C)OC)c2c3cc(ccc31)-c1cc(O)cc(c1)C[C@H](NC(=O)[C@H](C(C)C)N(C)C(=O)N1C[C@@H]3[C@H]1CCN3C(=O)[C@H]1CN1)C(=O)N1CCC[C@H](N1)C(=O)OCC(C)(C)C2` [Compound 250], the half-inhibitory concentration (IC50) is greater than 10 µM.

For the molecule `CCn1c(-c2cccnc2[C@H](C)OC)c2c3cc(ccc31)-c1cc(O)cc(c1)C[C@H](NC(=O)[C@H](C(C)C)N(C)C(=O)N1CCN(C(=O)[C@H]3CN3)C(=O)C1)C(=O)N1CCC[C@H](N1)C(=O)OCC(C)(C)C2` [Compound 143], the IC50 is greater than 10 µM.

In the case of `CCn1c(-c2cccnc2[C@H](C)OC)c2c3cc(ccc31)-c1cc(O)cc(c1)C[C@H](NC(=O)[C@H](C(C)C)N1CC[C@@H](NC(=O)[C@H]3CN3)C1=O)C(=O)N1CCC[C@H](N1)C(=O)OCC(C)(C)C2` [Compound 130], the 50% inhibitory concentration (IC50) was greater than 10 µM.

Regarding `CCn1c(-c2cccnc2[C@H](C)OC)c2c3cc(ccc31)-c1cc(O)cc(c1)C[C@H](NC(=O)[C@H](C(C)C)N(C)C(=O)N1CC(NC(=O)[C@H]3CN3)C1)C(=O)N1CCC[C@H](N1)C(=O)OCC(C)(C)C2` [Compound 189], the IC50 is greater than 10 µM.

With `CCn1c(-c2cccnc2[C@H](C)OC)c2c3cc(ccc31)-c1cc(O)cc(c1)C[C@H](NC(=O)[C@@H](COC1CN(C(=O)[C@H]3CN3)C1)C(C)C)C(=O)N1CCC[C@H](N1)C(=O)OCC(C)(C)C2` [Compound 312], the half-inhibitory concentration (IC50) is greater than 10 µM.

With `CCn1c(-c2cccnc2[C@H](C)OC)c2c3cc(ccc31)-c1cc(O)cc(c1)C[C@H](NC(=O)[C@H](C(C)C)N(C)C(=O)[C@H]1CCN(C(=O)[C@H]3CN3)[C@H]1C)C(=O)N1CCC[C@H](N1)C(=O)OCC(C)(C)C2` [Compound 206], the IC50 was greater than 10 µM.

In the case of `CCn1c(-c2cccnc2[C@H](C)OC)c2c3cc(ccc31)-c1csc(n1)C[C@H](NC(=O)[C@H](C(C)C)N(C)C(=O)N1CC[C@H]1CN(C)C(=O)[C@@H]1CN1)C(=O)N1CCC[C@H](N1)C(=O)OCC(C)(C)C2` [Compound 235], the IC50 is greater than 10 µM.

For the molecule `CCn1c(-c2cnccc2COC)c2c3cc(ccc31)-c1cc(O)cc(c1)C[C@H](NC(=O)[C@H](C(C)C)N(C)C(=O)c1ccc(NC(=O)[C@H]3CN3)cn1)C(=O)N1CCC[C@H](N1)C(=O)OCC(C)(C)C2` [47 A and B], the concentration for half-maximal inhibition (IC50) is greater than 10 µM.

Turning to `CCn1c(-c2cccnc2[C@H](C)OC)c2c3cc(ccc31)-c1cc(O)cc(c1)C[C@H](NC(=O)[C@H](C(C)C)N(C)C(=O)N1C[C@@H]3[C@H]1CCN3C(=O)[C@@H]1CN1)C(=O)N1CCC[C@H](N1)C(=O)OCC(C)(C)C2` [Compound 251], the half-maximal inhibitory concentration (IC50) is greater than 10 µM.

`CCn1c(-c2cnccc2COC)c2c3cc(ccc31)-c1cccc(c1)C[C@H](NC(=O)[C@H](C(C)C)N(C)C(=O)CC1(N=C=Nc3ccc(OC)cc3)CC1)C(=O)N1CCC[C@H](N1)C(=O)OCC(C)(C)C2` [65 A and B]: the IC50 lay within 1 to 10 µM.

For `CCn1c(-c2cccnc2[C@H](C)OC)c2c3cc(ccc31)-c1cc(O)cc(c1)C[C@H](NC(=O)[C@@H](COC1CCN(C(=O)[C@H]3CN3)CC1)C(C)C)C(=O)N1CCC[C@H](N1)C(=O)OCC(C)(C)C2` [Compound 211], the concentration for half-maximal inhibition (IC50) was greater than 10 µM.

Consider `CCn1c(-c2cnccc2COC)c2c3cc(ccc31)-c1cc(O)cc(c1)C[C@H](NC(=O)[C@H](C(C)C)N(C)C(=O)CN1C(=O)[C@H]3N[C@H]3C1=O)C(=O)N1CCC[C@H](N1)C(=O)OCC(C)(C)C2` [Compound 98], for which the concentration for half-maximal inhibition (IC50) was greater than 10 µM.

`CCn1c(-c2cccnc2[C@H](C)OC)c2c3cc(ccc31)-c1cccc(c1)C[C@H](NC(=O)[C@H](C(C)C)N(C)C(=O)CCN=C=NCc1ccccc1OC)C(=O)N1CCC[C@H](N1)C(=O)OCC(C)(C)C2` [Compound 73]: the IC50 was 1 to 10 µM.

For the molecule `CCn1c(-c2cccnc2[C@H](C)OC)c2c3cc(ccc31)-c1cc(O)cc(c1)C[C@H](NC(=O)[C@H](C(C)C)N(C)C(=O)N1CC(NC(=O)[C@@H]3CN3)C1)C(=O)N1CCC[C@H](N1)C(=O)OCC(C)(C)C2` [Compound 188], the 50% inhibitory concentration (IC50) is greater than 10 µM.

Turning to `CCn1c(-c2cccnc2[C@H](C)OC)c2c3cc(ccc31)-c1cc(O)cc(c1)C[C@H](NC(=O)[C@H](C(C)C)N(C)C(=O)c1ccc([C@@H]3CN3)cc1)C(=O)N1CCC[C@H](N1)C(=O)OCC(C)(C)C2` [Compound 131], the IC50 was greater than 10 µM.

Turning to `CCn1c(-c2cccnc2[C@H](C)OC)c2c3cc(ccc31)-c1cc(O)cc(c1)C[C@H](NC(=O)[C@H](C(C)C)N(C)C(=O)N(C)C1CN(C(=O)[C@H]3CN3)C1)C(=O)N1CCC[C@H](N1)C(=O)OCC(C)(C)C2` [Compound 203], the IC50 is greater than 10 µM.

As to `CCn1c(-c2cnccc2COC)c2c3cc(ccc31)-c1cccc(c1)C[C@H](NC(=O)[C@H](C(C)C)N1CC[C@@H](CN=C=NCCOC)C1)C(=O)N1CCC[C@H](N1)C(=O)OCC(C)(C)C2` [Compound 80], the half-inhibitory concentration (IC50) is 1 to 10 µM.

Take `CCn1c(-c2cccnc2[C@H](C)OC)c2c3cc(ccc31)-c1cc(O)cc(c1)C[C@H](NC(=O)[C@H](C(C)C)N1CC[C@@]3(CCN(C(=O)[C@@H]4N[C@@H]4C4CC4)C3)C1=O)C(=O)N1CCC[C@H](N1)C(=O)OCC(C)(C)C2` [Compound 128]: the concentration for half-maximal inhibition (IC50) was in the range of 1 to 10 µM.

With `CCn1c(-c2cccnc2[C@H](C)OC)c2c3cc(ccc31)-c1cc(O)cc(c1)C[C@H](NC(=O)[C@H](C(C)C)N1CCC3(CN(C(=O)[C@@H]4CN4)C3)C1=O)C(=O)N1CCC[C@H](N1)C(=O)OCC(C)(C)C2` [Compound 109], the IC50 was greater than 10 µM.

In the case of `CCn1c(-c2cccnc2[C@H](C)OC)c2c3cc(ccc31)-c1cccc(c1)C[C@H](NC(=O)[C@H](C(C)C)N(C)C(=O)[C@H]1CC[C@H](N=C=NCc3ccccc3OC)C1)C(=O)N1CCC[C@H](N1)C(=O)OCC(C)(C)C2` [Compound 76], the half-maximal inhibitory concentration (IC50) was in the range of 1 to 10 µM.

The experiment is the same for the next values; noted with them: Homo sapiens, ASPC1, 120 h, read-out: AsPC-1 Cell Viability IC50, AsPC-1, K-Ras G12D, 5-day treatment.
Consider `CCn1c(-c2cccnc2[C@H](C)OC)c2c3cc(ccc31)-c1cc(O)cc(c1)C[C@H](NC(=O)[C@H](C(C)C)N(C)C(=O)CN(C)C(=O)[C@H]1N[C@@H]1C1CC1)C(=O)N1CCC[C@H](N1)C(=O)OCC(C)(C)C2` [Compound 135], for which the IC50 was in the range of 0.1 to 1 µM.

By IC50 is commonly meant the concentration needed to halve the response being measured.
